# From the Kinase Knowledgebase extract (Sharma et al. 2016)
# Target: EGFR (UniProt P00533)
# Sequence (P00533 whole entry, looked up): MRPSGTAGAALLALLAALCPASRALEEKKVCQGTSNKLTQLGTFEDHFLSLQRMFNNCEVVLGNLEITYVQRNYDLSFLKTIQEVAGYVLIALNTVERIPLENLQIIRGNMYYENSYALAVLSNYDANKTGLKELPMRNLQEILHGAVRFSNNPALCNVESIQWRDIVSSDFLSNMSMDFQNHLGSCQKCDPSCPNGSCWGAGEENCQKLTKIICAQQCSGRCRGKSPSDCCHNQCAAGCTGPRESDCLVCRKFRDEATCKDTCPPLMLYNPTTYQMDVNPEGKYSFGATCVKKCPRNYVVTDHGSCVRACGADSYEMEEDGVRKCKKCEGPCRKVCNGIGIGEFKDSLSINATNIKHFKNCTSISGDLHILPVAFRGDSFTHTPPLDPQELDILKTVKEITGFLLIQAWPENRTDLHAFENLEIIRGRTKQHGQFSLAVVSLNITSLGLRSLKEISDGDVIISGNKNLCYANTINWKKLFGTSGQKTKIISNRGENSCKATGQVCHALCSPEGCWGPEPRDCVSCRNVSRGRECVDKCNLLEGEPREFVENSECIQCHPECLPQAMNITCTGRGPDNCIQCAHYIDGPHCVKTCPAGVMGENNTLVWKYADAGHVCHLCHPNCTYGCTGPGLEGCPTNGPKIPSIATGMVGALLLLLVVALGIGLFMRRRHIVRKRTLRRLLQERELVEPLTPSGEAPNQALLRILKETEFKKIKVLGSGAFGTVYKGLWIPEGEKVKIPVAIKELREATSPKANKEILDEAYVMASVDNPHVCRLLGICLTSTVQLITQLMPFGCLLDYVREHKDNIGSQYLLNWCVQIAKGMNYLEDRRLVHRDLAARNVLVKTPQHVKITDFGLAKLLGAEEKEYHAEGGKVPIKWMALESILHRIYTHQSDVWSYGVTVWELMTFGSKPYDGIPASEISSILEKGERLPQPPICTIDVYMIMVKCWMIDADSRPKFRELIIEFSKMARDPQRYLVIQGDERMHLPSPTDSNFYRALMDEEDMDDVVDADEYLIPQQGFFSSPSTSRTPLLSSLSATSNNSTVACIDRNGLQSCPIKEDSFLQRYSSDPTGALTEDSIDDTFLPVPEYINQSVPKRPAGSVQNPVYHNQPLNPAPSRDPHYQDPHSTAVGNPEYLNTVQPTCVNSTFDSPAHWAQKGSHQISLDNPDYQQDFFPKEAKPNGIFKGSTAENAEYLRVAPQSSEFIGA
row,IC50,SMILES
1,0.003 to 25 µM,CCCc1c(C(=O)OCC)cn2ncnc(Nc3ccc4c(cnn4Cc4ccccc4)c3)c12
2,0.003 to 25 µM,Cc1c(C(=O)NCCCn2nccn2)cn2ncnc(C3C(=O)Nc4ccccc43)c12 (centres undefined)
3,0.003 to 25 µM,Cc1c(N(C)C)c(CO)n2ncnc(C3C(=O)Nc4ccccc43)c12 (centres undefined)
4,0.003 to 25 µM,Cc1c(C(=O)NCCCCN2CCOCC2)cn2ncnc(C3C(=O)Nc4ccccc43)c12 (centres undefined)
5,0.003 to 25 µM,CNS(=O)(=O)c1ccc2c(c1)C(c1ncnn3cc(C(=O)OC)c(C)c13)C(=O)N2 (centres undefined)
6,0.003 to 25 µM,CCOC(=O)c1cn2ncnc(Nc3ccc(F)c(Cl)c3)c2c1Cc1ccccc1
7,0.003 to 25 µM,CCOC(=O)c1cn2ncnc(NCc3ccccc3Br)c2c1CC
8,0.003 to 25 µM,CCc1c(CO)c(Br)n2ncnc(Nc3ccc4c(cnn4Cc4ccccc4)c3)c12
9,0.003 to 25 µM,COC(=O)c1cn2ncnc(Nc3ccc(C(C)C)c(O)c3)c2c1C
10,0.003 to 25 µM,Cc1ccc(Nc2ncnn3c(C)ccc23)cc1O
11,0.003 to 25 µM,CCOC(=O)c1cn2ncnc(Nc3ccc(Cl)nc3)c2c1CC
12,0.003 to 25 µM,CCc1c(C(=O)NCCN2CCCC2)cn2nc(C)nc(Nc3ccc(OC)nc3)c12
13,0.003 to 25 µM,CCOC(=O)c1cn2ncnc(Nc3ccc(C)c(O)c3)c2c1C(C)C
14,0.003 to 25 µM,CCOC(=O)c1cn2ncnc(C3C(=O)Nc4ccccc43)c2c1CC (centres undefined)
15,0.003 to 25 µM,CCc1ccn2ncnc(Nc3ccc(C)c(O)c3)c12
16,0.003 to 25 µM,COC(=O)c1cc2c(C3C(=O)Nc4ccccc43)ncnn2c1 (centres undefined)
17,0.003 to 25 µM,Fc1cc(Br)ccc1Nc1ncnn2cccc12
18,0.003 to 25 µM,COC(=O)c1cn2ncnc(C3C(=O)Nc4ccc(S(N)(=O)=O)cc43)c2c1C (centres undefined)
19,0.003 to 25 µM,COC(=O)c1cn2ncnc(Oc3cccc(O)c3)c2c1C
20,0.003 to 25 µM,COC(=O)c1cn2ncnc(C3C(=O)Nc4ccc(S(=O)(=O)NCCO)cc43)c2c1C (centres undefined)
21,0.003 to 25 µM,Cc1c(N)cn2ncnc(C3C(=O)Nc4ccccc43)c12 (centres undefined)
22,0.003 to 25 µM,CCOC(=O)c1cn2ncnc(C3C(=O)Nc4ccccc43)c2c1OC (centres undefined)
23,0.003 to 25 µM,COC(=O)c1cn2ncnc(C3C(=O)Nc4ccccc43)c2c1C (centres undefined)

row,IC50,SMILES
1,0.003 to 25 µM,CCNC(=O)c1cn2ncnc(Nc3ccc4c(cnn4Cc4ccccc4)c3)c2c1CC
2,0.003 to 25 µM,COC(=O)c1cc2c(Nc3ccc4c(cnn4Cc4ccccc4)c3)ncnn2c1
3,0.003 to 25 µM,CCc1c(C)c2c(Nc3ccc(C)c(O)c3)ncnn2c1C
4,0.003 to 25 µM,Cc1c(C(=O)NCCCN2CCOCC2)cn2ncnc(C3C(=O)Nc4ccc(S(N)(=O)=O)cc43)c12 (centres undefined)
5,0.003 to 25 µM,COC(=O)c1cn2ncnc(Nc3cccc(C(=O)NN)c3)c2c1C
6,0.003 to 25 µM,CCOC(=O)c1cn2ncnc(NCCc3ccccc3)c2c1CC
7,0.003 to 25 µM,COC(=O)c1cn2ncnc(C3C(=O)Nc4cc(C(F)(F)F)ccc43)c2c1C (centres undefined)
8,0.003 to 25 µM,Cc1ccc(Nc2ncnn3cc(C(=O)OCc4ccccc4)c(C)c23)cc1O
9,0.003 to 25 µM,CCOC(=O)c1cn2ncnc(Nc3ccc(C)c(O)c3)c2c1CC
10,0.003 to 25 µM,Cc1c(C(=O)NCCCN2CCOCC2)cn2ncnc(C3C(=O)Nc4ccc(F)cc43)c12 (centres undefined)
11,0.003 to 25 µM,COC(=O)c1cn2ncnc(Nc3ccc4c(=O)[nH][nH]c(=O)c4c3)c2c1C
12,0.003 to 25 µM,COc1c(N)cn2ncnc(C3C(=O)Nc4ccccc43)c12 (centres undefined)
13,0.003 to 25 µM,CCC(C)NC(=O)c1cn2ncnc(C3C(=O)Nc4ccccc43)c2c1C (centres undefined)
14,0.003 to 25 µM,CCc1c(C(=O)OC)cn2ncnc(Nc3ccc(OC)nc3)c12
15,0.003 to 25 µM,CCOC(=O)c1cn2ncnc(Nc3ccc(C)c(O)c3)c2c1C(=O)OCC
16,0.003 to 25 µM,COc1c(NC(=O)OCc2ccccc2)cn2ncnc(C3C(=O)Nc4ccccc43)c12 (centres undefined)
17,0.003 to 25 µM,CCOC(=O)c1cn2ncnc(N[C@H]3CC[C@H](O)CC3)c2c1CC
18,0.003 to 25 µM,Cc1ccc(Nc2ncnn3cc(C(=O)NCCCN4CCOCC4)c(C)c23)cc1O
19,0.003 to 25 µM,Cc1ccc(Nc2ncnn3cc(C(=O)NCCCS(C)(=O)=O)c(C)c23)cc1O
20,0.003 to 25 µM,CCOC(=O)c1cn2ncnc(Cl)c2c1CC
21,0.003 to 25 µM,CCOC(=O)c1cn2ncnc(Nc3ccccc3)c2c1CC
22,0.003 to 25 µM,COC(=O)c1cn2ncnc(-n3[nH]c4ccccc4c3=O)c2c1C
23,0.003 to 25 µM,CCOC(=O)c1c(CC)c2c(Nc3ccc4c(cnn4Cc4ccccc4)c3)ncnn2c1Br

row,IC50,SMILES
1,0.003 to 25 µM,COC(=O)c1cn2ncnc(Nc3ccc4c(c3)N(C(C)=O)CC4)c2c1C
2,0.003 to 25 µM,Cc1cc2c(Nc3ccc(C)c(O)c3)ncnn2c1
3,0.003 to 25 µM,Cc1ccc(Nc2ncnn3cc(C(=O)O)c(C)c23)cc1O
4,0.003 to 25 µM,Cc1c(NS(=O)(=O)CCCN2CCOCC2)cn2ncnc(C3C(=O)Nc4ccccc43)c12 (centres undefined)
5,0.003 to 25 µM,COc1c(C(=O)NCCCN2CCOCC2)cn2ncnc(C3C(=O)Nc4ccccc43)c12 (centres undefined)
6,0.003 to 25 µM,CCc1c(COCCN2CCOCC2)cn2ncnc(Nc3ccc4c(cnn4Cc4ccccc4)c3)c12
7,0.003 to 25 µM,Cc1ccc(Nc2ncnn3cc(C(=O)NCCCN4CCN(C)CC4)c(C)c23)cc1O
8,0.003 to 25 µM,CCc1c(NC(=O)OCc2ccccc2)cn2ncnc(Nc3ccc(OC)nc3)c12
9,0.003 to 25 µM,CCc1c(C(=O)OC)cn2ncnc(Nc3ccc4c(cnn4Cc4ccccc4)c3)c12
10,0.003 to 25 µM,CCc1ccc(Nc2ncnn3cc(C(=O)OC)c(C)c23)cc1O
11,0.003 to 25 µM,Cc1c(OCCCn2nccn2)cn2ncnc(Nc3cccc(Br)c3)c12
12,0.003 to 25 µM,COC(=O)c1cn2ncnc(C3C(=O)Nc4ccc(F)cc43)c2c1C (centres undefined)
13,0.003 to 25 µM,CCOC(=O)c1cn2ncnc(Nc3ccc(O)cc3)c2c1CC
14,0.003 to 25 µM,COc1c(NCCCCN2CCOCC2)cn2ncnc(C3C(=O)Nc4ccccc43)c12 (centres undefined)
15,0.003 to 25 µM,COc1c(NCCCCN2CCN(C)CC2)cn2ncnc(C3C(=O)Nc4ccccc43)c12 (centres undefined)
16,0.003 to 25 µM,COC(=O)c1cn2ncnc(Nc3ccc(C)c(S(N)(=O)=O)c3)c2c1C
17,0.003 to 25 µM,CCOC(=O)c1cn2ncnc(Nc3ccc4c(cnn4Cc4ccccc4)c3)c2c1CC
18,0.003 to 25 µM,COC(=O)c1cn2ncnc(Nc3ccc(C)c(C#N)c3)c2c1C
19,0.003 to 25 µM,CCCc1c(C(=O)NCCCN2CCOCC2)cn2ncnc(Nc3ccc(C)c(O)c3)c12
20,0.003 to 25 µM,CCCc1c(C(=O)OCC)cn2ncnc(Nc3ccc(C)c(O)c3)c12
21,0.003 to 25 µM,CCOC(=O)c1cn2ncnc(N[C@H](C)c3ccccc3)c2c1CC
22,0.003 to 25 µM,COc1cn2ncnc(C3C(=O)Nc4ccccc43)c2c1OC (centres undefined)
23,0.003 to 25 µM,CCOC(=O)c1cn2ncnc(Nc3ccc(OC)nc3)c2c1C

row,IC50,SMILES
1,0.003 to 25 µM,Cc1ccc(Nc2ncnn3ccc(C)c23)c(O)c1
2,0.003 to 25 µM,CCOC(=O)c1cn2ncnc(Nc3ccc(C)c(O)c3)c2c1-c1ccccc1
3,0.003 to 25 µM,COC(=O)c1cn2ncnc(Nc3ccc(C)c([N+](=O)[O-])c3)c2c1C
4,0.003 to 25 µM,CCOC(=O)c1cn2ncnc(NCC3CCCCC3)c2c1CC
5,0.003 to 25 µM,Cc1c(C(=O)NCCCN2CCN(C)CC2)cn2ncnc(C3C(=O)Nc4ccccc43)c12 (centres undefined)
6,0.003 to 25 µM,CCCCc1ccc(Nc2ncnn3cc(C(=O)OC)c(C)c23)cc1O
7,0.003 to 25 µM,COC(=O)c1cn2ncnc(-c3c(O)[nH]c4cc(F)ccc34)c2c1C
8,0.003 to 25 µM,CCOC(=O)c1cn2ncnc(Nc3ccc(Br)cc3F)c2c1OC
9,0.003 to 25 µM,CCOC(=O)c1cn2ncnc(N[C@@H](C)c3ccccc3)c2c1CC
10,0.003 to 25 µM,Cc1ccc(Nc2ncnn3cccc23)cc1O
11,0.003 to 25 µM,CCCc1c(C(=O)NCCCN2CCCC2)cn2ncnc(Nc3ccc(C)c(O)c3)c12
12,0.003 to 25 µM,COC(=O)c1cn2ncnc(-c3c(O)[nH]c4cc(Br)ccc34)c2c1C
13,0.003 to 25 µM,COC(=O)c1cn2ncnc(Nc3ccc4c(c3)OCCO4)c2c1C
14,0.003 to 25 µM,CCOC(=O)c1cn2ncnc(N3CCC4C=CC=CC4C3)c2c1CC (centres undefined)
15,0.003 to 25 µM,Cc1ccc(Nc2ncnn3cc(CO)c(C)c23)cc1O
16,0.003 to 25 µM,COC(=O)c1cn2ncnc(Nc3ccc(NS(=O)(=O)c4ccccc4)c(O)c3)c2c1C
17,0.003 to 25 µM,Cc1c(NC(=O)NCCCN2CCOCC2)cn2ncnc(C3C(=O)Nc4ccccc43)c12 (centres undefined)
18,0.003 to 25 µM,COC(=O)c1cn2ncnc(Nc3cc[nH]n3)c2c1C
19,0.003 to 25 µM,COC(=O)c1cn2ncnc(Nc3ccc(C)c(NS(C)(=O)=O)c3)c2c1C
20,0.003 to 25 µM,CCOC(=O)c1cn2ncnc(NCc3ccc(Br)cc3)c2c1CC
21,0.003 to 25 µM,COC(=O)c1cn2ncnc(Nc3ccc(Br)cc3F)c2c1C
22,0.003 to 25 µM,CCOC(=O)c1cn2ncnc(Nc3ccc(C)c(O)c3)c2c1OCC
23,0.003 to 25 µM,COC(=O)c1cn2ncnc(N3CC(=O)Nc4ccccc43)c2c1C

row,IC50,SMILES
1,0.003 to 25 µM,CCc1c(C(=O)OCc2ccccc2)cn2ncnc(Nc3ccc(F)c(Cl)c3)c12
2,0.003 to 25 µM,CCOC(=O)c1cn2ncnc(Nc3ccc(C)c(NS(C)(=O)=O)c3)c2c1CC
3,0.003 to 25 µM,Cc1ccc(Nc2nc(N(C)C)nn3cccc23)cc1O
4,0.003 to 25 µM,CCOC(=O)c1cn2ncnc(Nc3ccc(Oc4ccccc4)cc3)c2c1CC
5,0.003 to 25 µM,Cc1ccc(Nc2ncnn3cc(N)c(C)c23)cc1O
6,0.003 to 25 µM,Cc1nc(C2C(=O)Nc3ccccc32)c2c(C)c(C(=O)NCCCN3CCOCC3)cn2n1 (centres undefined)
7,0.003 to 25 µM,COC(=O)c1cn2ncnc(N(C)c3ccc(C)c(O)c3)c2c1C
8,0.003 to 25 µM,Cc1ccn2ncnc(Nc3ccc(Br)cc3F)c12
9,0.003 to 25 µM,COC(=O)c1cn2ncnc(C3C(=O)Nc4cc(C#N)ccc43)c2c1C (centres undefined)
10,0.003 to 25 µM,COC(=O)c1cn2ncnc(Nc3ccc(C)cn3)c2c1C
11,0.003 to 25 µM,CCOC(=O)c1cn2ncnc(NCCCn3ccnc3)c2c1CC
12,0.003 to 25 µM,CCOC(=O)c1cn2ncnc(Nc3ccc4c(cnn4Cc4ccccc4)c3)c2c1C(C)C
13,0.003 to 25 µM,COC(=O)c1cn2ncnc(Nc3ccccc3S(N)(=O)=O)c2c1C
14,0.003 to 25 µM,CCOC(=O)c1cn2ncnc(Nc3ccc(Br)cc3)c2c1CC
15,0.003 to 25 µM,Cc1c(NC(=O)NCCN2CCOCC2)cn2ncnc(C3C(=O)Nc4ccccc43)c12 (centres undefined)
16,0.003 to 25 µM,COC(=O)c1cn2ncnc(Nc3nc4ccccc4s3)c2c1C
17,0.003 to 25 µM,COc1cn2ncnc(C3C(=O)Nc4ccccc43)c2c1C (centres undefined)
18,0.003 to 25 µM,Cc1ccc(Nc2ncnn3cc(C(=O)NCCN4CCCC4)c(C)c23)cc1O
19,0.003 to 25 µM,COC(=O)c1cn2ncnc(C3C(=O)Nc4ncccc43)c2c1C (centres undefined)
20,0.003 to 25 µM,CCOC(=O)c1cn2ncnc(Nc3ccc(OC)nc3)c2c1OC
21,0.003 to 25 µM,CCOC(=O)c1cn2ncnc(N3CCCC4C=CC=CC43)c2c1CC (centres undefined)
22,0.003 to 25 µM,COC(=O)c1cn2ncnc(Nc3cccc(S(N)(=O)=O)c3)c2c1C
